Assay results: patent US20220396840A1, “IRON-SCORE AND IN VITRO METHOD FOR IDENTIFYING MANTLE CELL LYMPHOMA (MCL) SUBJECTS AND THERAPEUTIC USES AND METHODS” (priority 2019, published 2022)
Read-outs that look alike come from different tables or passages of the source.

How the values were obtained:
GRANTA-519 = assay: Cell viability assay (CellTiter-Glo, ATP quantification); type: cell-based; conditions: Homo sapiens
Procedure: (§1) The 6 MCL cell lines (GRANTA-519, JEKO-1, MINO, MAVER-1, JVM-2 and REC-1) were purchased from the DSMZ (Leibniz-Institut DSMZ—Deutsche Sammlung von Mikroorganismen und Zellkulturen GmbH, Germany). They were maintained according to the supplier's recommendations. Cultures were maintained at 37° C. in a humidified atmosphere with 5% CO2.
(§2) MCL cell lines were cultured for 4 days in 96-well flat-bottom microtiter plates in RPMI 1640 medium or DMEM medium, 10% or 20% FCS (control medium) in the presence of various compounds. The number of viable cells in culture was determined using the CellTiter-Glo Luminescent Cell Viability Assay from Promega, Madison, Wis., USA using a Centro LB 960 luminometer (Berthold Technologies, Bad Wildbad, Germany).
(§3) This test is based on quantitation of the intracellular ATP present, which signals the presence of metabolically active cells. Data are expressed as the mean percentage of six replicates, normalized to the untreated control.
(§4) We investigated the therapeutic interest of iron metabolism inhibitors AM5 (Ironomycin) and AM23. The panel of 6 MCL cell lines were incubated with increasing concentrations of Ironomycin (FIG. 2 A), AM23 (FIG. 2 B) or vehicle for 96H (A). Inhibitory concentration 50% (IC50) was calculated with concentration-response curve after treatment with Ironomycin. Cell viability was examined using quantification of ATP assay. Data are expressed as mean percentage+/−SEM of at least three independent experiments performed in sixplicate. Tables 6 and 7 presenting the inhibitory concentration 50% (IC50) of Ironomycin and AM23 for the 6 MCL cell-lines.

JEKO-1 = assay: as above; type: cell-based; conditions: Homo sapiens
Procedure: as §1, §2, §3, §4

JVM-2 = assay: as above; type: cell-based; conditions: Homo sapiens
Procedure: as §1, §2, §3, §4

MAVER-1 = assay: as above; type: cell-based; conditions: Homo sapiens
Procedure: as §1, §2, §3, §4

MINO = assay: as above; type: cell-based; conditions: Homo sapiens
Procedure: as §1, §2, §3, §4

REC-1 = assay: as above; type: cell-based; conditions: Homo sapiens
Procedure: as §1, §2, §3, §4

primary MCL cells = assay: Primary MCL cells of patients cultured with CD40L, flow cytometry; type: cell-based, human
Procedure: (§5) In a first experiment, primary MCL cells were treated with Ironomycin and incubated during 96H with CD40L. The toxicity on MCL cells (A) and non-MCL cells (B) was analyzed by flow cytometry and expressed in % of control. N=5, Median+/−IQR, t-test of pairs. * P<0.05, ** P<0.01, *** P<0.001, **** P<0.0001.
These first results were further completed by additional experiments: primary MCL cell were treated with Ironomycin (C) or AM-23 (D) and incubated during 96H with recombinant CD40L.
Results represent the median±IQR of each population cells of nine (C) and six patients (D), respectively. Statistical significance was tested using t-test of pairs: * P<0.05, ** P<0.01 *** P<0.001, **** P<0.0001 and NS: non-significant.
(§6) Cells are obtained from lymph nodes or blood of 9 patients with MCL.
(§7) In a first experiment, primary MCL cells were treated with Ironomycin and incubated during 96H with CD40L. The toxicity on MCL cells (FIG. 7 A) and non-MCL cells (FIG. 7 B) was analyzed by flow cytometry and expressed in % of control.
The toxicity on MCL cells was analyzed by flow cytometry and expressed in % of control.

[1] = test system: Jeko-1 and JVM-2 MCL cell lines; conditions: deferasirox 80 μM, Ironomycin 50 nM and 500 nM, 72H
Procedure: Jeko-1 and JVM2 cell line was pre-incubated with or without 80 μM of deferasirox or 50 nM and 500 nM of Ironomycin, respectively, for 4 hours followed by 72H incubation in presence or absence of FeCl3 (100 μM). Apoptosis was assessed using Annexin V-PE staining by flow cytometry.
AnnexinV-PE staining for apoptosis analysis was performed using the “PE Annexin V Apoptosis Detection Kit I” (559763, Becton Dickinson).
The inventors further investigated the effect of Iron supplementation on the cell death induced by these treatments. Iron chelator (Deferasirox) concentrations were chosen according the maximal plasmatic concentration achievable in the patient (Nisbet-Brown et al., 2003).

[2] = test system: Jeko-1 and JVM-2 cell lines; assay: Cell cycle analysis by flow cytometry (BrdU/DAPI); type: cell-based, human; conditions: IC50 Ironomycin for 24 hours
Procedure: Cells were incubated with vehicle or with IC50 Ironomycin for 24 hours.
The cell cycle progression was studied by flow cytometry using the Apoptosis, DNA Damage, and Cell Proliferation Kit (562253, Becton Dickinson). Briefly, cells were labeled with bromodeoxyuridine (BrdU), an analog of the DNA precursor thymidine that can be incorporated into newly synthesized DNA and detected with an antibody against BrdU to measure cell proliferation. After this labeling, the cells were fixed, permeabilized and treated with DNase to expose the BrdU epitopes. Following this treatment, cells were simultaneously stained with fluorochrome-labeled anti-BrdU, anti-cleaved Poly ADP-ribose polymerase 1 (PARP), anti-H2AX phosphorylated at serine 139. They were also stained with DAPI to determine DNA content. Finally, cells were resuspended in staining buffer and analyzed by flow cytometry (Fortessa, Becton Dickinson).
Cells were incubated with vehicle or with IC50 Ironomycin for 24 hours. […] (FIG. 4)

Phospho-H2A.X (S139) = assay: Western blot of Phospho-H2A.X (S139), DNA damage response; type: cell-based, human; conditions: 100 nM for Jeko-1 and 500 nM for JVM-2, 24H
Procedure: Cells were treated with Ironomycin (100 nM for Jeko-1 and 500 nM for JVM-2) during 24H. Protein levels of Phospho-H2A.X (S139) were analyzed by western blot and normalized by β-actin protein level.
(§8) The total cell lysates were obtained with RIPA 1× lysis buffer (#9806, Cell Signaling®) according with the supplier recommendations.
Protein lysates migrate on 10% polyacrylamide gel (NP-0301, Novex, Life Technologies®), in MOPS 1× running buffer (NP0001, Novex, Life Technologies®) or MES 1× running buffer NP-0002, Novex, Life Technologies®) and proteins are transferred to nitrocellulose membrane (1B301001, I-Blot Transfert Starck, NuPAGE, Life Technologies®). The primary antibodies mouse-anti-phospho-Histone H2A.X (Ser139) clone JBW301 (1/1000, Merck Millipore), rabbit anti-cyclinD1 (#2926, 1/1000, Cell Signaling®), rabbit anti-phospho (S795)-Rb (#9301, 1/1000, Cell Signaling®), mouse anti-Rb (#9309, 1/1000, Cell Signaling®), mouse anti-CDK4 (#2906, 1/1000, Cell Signaling®) were incubated in TBS-Tween 20 0.1% (Tris-Buffered Saline, pH 7.4) with 5% non-fat milk or Bovine serum albumin (Sigma-Aldrich, A7906). […] Quantification of protein levels was performed with Image J® software (National Institutes of Health, Bethesda, Md., USA).
Protein levels of Phospho-H2A.X (S139) were analyzed by western blot and normalized by β-actin protein level (FIG. 5).

[3] = test system: Cyclin D1, phospho-Rb, CDK4 in Jeko-1 and JVM2 cells; assay: Western blot of cyclinD1, phospho-Rb, Rb and CDK4; type: cell-based, human; conditions: 100 nM Jeko-1, 500 nM JVM2, 24H
Procedure: Jeko-1 and JVM2 cells were treated with Ironomycin (100 nM and 500 nM, respectively) during 24H. Protein levels of cyclinD1, phospho-Rb, Rb and CDK4 were analyzed by western blot and normalized by the β-actin expression level. This Cyclin D1 downregulation is associated with a downregulation of Rb phosphorylation and CDK4 protein levels.
as §8
Protein lysates migrate on 10% polyacrylamide gel (NP-0301, Novex, Life Technologies®), in MOPS 1× running buffer (NP0001, Novex, Life Technologies®) or MES 1× running buffer NP-0002, Novex, Life Technologies®) and proteins are transferred to nitrocellulose membrane (1B301001, I-Blot Transfert Starck, NuPAGE, Life Technologies®). The primary antibodies mouse-anti-phospho-Histone H2A.X (Ser139) clone JBW301 (1/1000, Merck Millipore), rabbit anti-cyclinD1 (#2926, 1/1000, Cell Signaling®), rabbit anti-phospho (S795)-Rb (#9301, 1/1000, Cell Signaling®), mouse anti-Rb (#9309, 1/1000, Cell Signaling®), mouse anti-CDK4 (#2906, 1/1000, Cell Signaling®) were incubated in TBS-Tween 20 0.1% (Tris-Buffered Saline, pH 7.4) with 5% non-fat milk or Bovine serum albumin (Sigma-Aldrich, A7906). Protein levels are objectified by labeling with an anti-β-actin mouse monoclonal antibody (Sigma, A5441, St Louis, Mo., USA 1/1000). Primary antibodies are visualized with secondary anti-rabbit antibodies (Sigma®, A9169) or anti-mouse antibodies (Jackson, 115-036-068) coupled to peroxidase allows the development by chemiluminescence by Western Lightning ECL (NEL121001EA, Perkin Elmer®). Quantification of protein levels was performed with Image J® software (National Institutes of Health, Bethesda, Md., USA).
Mantle cell lymphoma (MCL) is now recognized as an aggressive B-cell lymphoma with various growth patterns (mantle zone, nodular, or diffuse) and a broad range of cytologic features. […]

[4] = test system: non-MCL cells (normal cells from the microenvironment); type: cell-based, human
Procedure: as §5, §6, §7

Jeko-1 and JVM-2 cells = assay: Drug combination concentration matrix, cell viability by ATP quantification, Bliss synergy matrix; type: cell-based, human; conditions: 96 h
Procedure: Jeko-1 and JVM-2 cells were treated with increasing concentrations of ironomycin combined with ibrutinib (BTK inhibitor) for 96 h and cell viability was tested by ATP quantification to obtain the viability matrix. The synergy matrix was calculated as described in Material and Methods.
Jeko-1 and JVM-2 cells were treated with increasing concentrations of ironomycin combined with Venetoclax (BCL2 inhibitor) for 96 h and cell viability was tested by ATP quantification to obtain the viability matrix. The synergy matrix was calculated as described in Material and Methods.
Jeko-1 and JVM-2 cells were treated with increasing concentrations of ironomycin combined with doxorubicin for 96 h and cell viability was tested by ATP quantification to obtain the viability matrix. The synergy matrix was calculated as described in Material and Methods.
The interaction between the drugs tested in vitro was investigated with a concentration matrix test, in which increasing concentration of each single drug were assessed with all possible combinations of the other drugs. For each combination, the percentage of expected growing cells in the case of effect independence was calculated according to the Bliss equation (Combes et al., 2019): […]
where fuC is the expected fraction of cells unaffected by the drug combination in the case of effect independence, and fuA and fuB are the fractions of cells unaffected by treatment A and B, respectively. The difference between the fraction of living cells in the cytotoxicity test and the fuC value was considered as an estimation of the interaction effect, with positive values indicating synergism and negative values antagonism.
Synergy matrix was built with the R package “SynergyFinder”.

[5] = test system: hematopoietic progenitors
[6] = Homo sapiens, 96 h, read-out: reduction of the median number of viable primary MCL cells

CC[C@@H](C(=O)[C@@H](C)[C@@H](O)[C@H](C)[C@@H]1O[C@@H]([C@@H](CC)C(=O)O)CC[C@@H]1C)[C@H]1O[C@]2(C=C[C@@H](NC3CC3)[C@]3(CC[C@@](C)([C@H]4CC[C@](O)(CC)[C@H](C)O4)O3)O2)[C@H](C)C[C@@H]1C [AM-23]
IC50 (GRANTA-519; Granta-519, 96 h): 0.845 µM | IC50 (JEKO-1; JeKo-1, 96 h): 0.008 µM | IC50 (JVM-2; JVM-2, 96 h): 0.058 µM | IC50 (MAVER-1; Maver1, 96 h): 0.0173 µM | IC50 (MINO; 96 h): 0.043 µM | IC50 (REC-1; Rec1, 96 h): 0.0068 µM | cytotoxicity at 0.01 µM (primary MCL cells; [6]): 34% | cytotoxicity at 0.02 µM (primary MCL cells; [6]): 58% | cytotoxicity at 0.05 µM (primary MCL cells; [6]): 60% | cytotoxicity at 0.1 µM (primary MCL cells; [6]): 64%

C#CCN[C@@H]1C=C[C@]2(O[C@H]([C@@H](CC)C(=O)[C@@H](C)[C@@H](O)[C@H](C)[C@@H]3O[C@@H]([C@@H](CC)C(=O)O)CC[C@@H]3C)[C@@H](C)C[C@H]2C)O[C@@]12CC[C@@](C)([C@H]1CC[C@](O)(CC)[C@H](C)O1)O2 [Ironomycin]
IC50 (GRANTA-519; GRANTA-519, 96H incubation, cell viability by ATP, read-out: IC50): 0.802 µM | IC50 (JEKO-1; JEKO-1, 96H incubation, cell viability by ATP, read-out: IC50): 0.0128 µM | IC50 (JVM-2; JVM-2, 96H incubation, cell viability by ATP, read-out: IC50): 0.139 µM | IC50 (MAVER-1; Maver1, MAVER-1, 96H incubation, cell viability by ATP, read-out: IC50): 0.0505 µM | IC50 (MINO; 96H incubation, cell viability by ATP, read-out: IC50): 0.0544 µM | IC50 (REC-1; Rec1, REC-1, 96H incubation, cell viability by ATP, read-out: IC50): 0.0534 µM | apoptosis monitored by Annexin V staining [1]: induces apoptosis | cell cycle [2]: induces MCL cell cycle defect | DNA damage response (Serine 139 phosphorylation of H2A.X) (Phospho-H2A.X (S139)): induces DNA damage response | CDK4 protein levels [3]: downregulation | Cyclin D1 protein level [3]: significant downregulation | RB phosphorylation [3]: downregulation | median number of viable primary MCL cells (first experiment) (primary MCL cells; 20 nM, 50 nM and 100 nM, 96H with CD40L, N=5): significantly reduced | cytotoxicity at 0.02 µM (primary MCL cells; [6]): 30% | cytotoxicity at 0.05 µM (primary MCL cells; [6]): 46% | cytotoxicity at 0.1 µM (primary MCL cells; [6]): 53% | toxicity for non-tumor cells from the microenvironment [4]: without major toxicity | toxicity in MCL cells compared to normal cells from the microenvironment [4]: higher toxicity in MCL cells compared to normal cells | interaction effect in combination with Doxorubicin (Jeko-1 and JVM-2 cells): synergistic effect | interaction effect in combination with Ibrutinib (BTK inhibitor) (Jeko-1 and JVM-2 cells): synergistic effect | interaction effect in combination with Venetoclax (Bcl2 inhibitor) (Jeko-1 and JVM-2 cells): synergistic effect | toxicity on hematopoietic progenitors [5]: low toxicity
